Reference: US20240140931A1, “TRICYCLIC COMPOUNDS AND USES THEREOF” (HUTCHMED LIMITED, priority 2021, published 2024)

Tests used:
Miapaca2 3D spheroids = assay: Assay of cell proliferation on Miapaca2 3D spheroids; type: cell-based; settings: Homo sapiens, MIA PaCa-2, 120 h, CellTiter-Glo 3D, 5 days treatment
Procedure, shortened: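 Miapaca2 spheroids (300 cells/well, formed by day 2) exposed 5 days at 37 °C to compound in 3-fold dilution series, 0.1% DMSO final. Viability by CellTiter-Glo 3D luminescence; survival % relative to day-2 and day-7 DMSO controls, IC50 from four-parameter logistic fit.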

[1] = system: pERK1/2 (Thr202/Tyr204) in Miapaca2 cells; assay: Assay of intracellular pERK1/2 (Thr202/Tyr204) phosphorylation; type: cell-based; settings: pERK1/2 (Thr202/Tyr204) HTRF
Procedure, shortened: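 HTRF read-out (665/615 nm) of phospho-ERK1/2 Thr202/Tyr204 in lysates from Miapaca2 cells exposed for 2 h to 3-fold compound dilutions at 0.5% final DMSO. Controls: lysis buffer without cells and DMSO-treated cells; IC50 from four-parameter logistic fit.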

[2] = biological target: Human full-length SHP2 recombinant protein (Homo sapiens (Human), UniProt Q06124); assay: Assay of full-length SHP2 phosphatase activity; type: biochemical; settings: DiFMUP substrate, with activating peptide
Procedure, shortened: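 Readout: DiFMUP hydrolysis fluorescence (355/460 nm) after 60 min at 25 °C, following 30 min RT preincubation of compound with peptide-activated full-length human SHP2. Controls were 1% DMSO with or without enzyme; IC50 by four-parameter logistic fit.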

| SMILES | IC50 (Miapaca2 3D spheroids) | IC50 ([1]; Homo sapiens, MIA PaCa-2, 2 h) | IC50 [2] | IC50 ([1]; 2 hours) |
| --- | --- | --- | --- | --- |
| CCNC(=O)C#Cc1ccc2c(c1)[C@@H](N)C1(CCN(c3ncc(Sc4ccnc(N)c4Cl)nc3C)CC1)C2 [Compound 290] | 0.3 nM | 4 nM | 1 nM |  |
| COCC#Cc1ccc2c(c1)[C@@H](N)C1(CCN(c3ncc(Sc4ccnc(N)c4Cl)c4ncnn34)CC1)C2 [Compound 148] | 47 nM | 13 nM | 4 nM |  |
| COCC#Cc1ccc2c(c1)[C@@H](N)C1(CCN(c3ncc(Sc4ccnc(N)c4Cl)c(=O)n3C)CC1)C2 [Compound 291] | 0.3 nM | 9 nM | 1 nM |  |
| CNC(=O)C#Cc1ccc2c(c1)[C@@H](N)C1(CCN(c3cnc(Sc4ccnc(N)c4Cl)cn3)CC1)C2 [Compound 227] | 0.4 nM | 2 nM | 1 nM |  |
| Cc1nc(N2CCC3(CC2)Cc2ccc(C#CC(=O)N(C)C)cc2[C@H]3N)cc(=O)n1-c1cccc(Cl)c1Cl [Compound 194] | 36 nM | 18 nM | 1 nM |  |
| CCNC(=O)C#Cc1ccc2c(c1)[C@@H](N)C1(CCN(c3cnc(N4CCCc5ncccc54)nn3)CC1)C2 [Compound 244] | 41 nM | 139 nM | 11 nM |  |
| NC(=O)C#Cc1ccc2c(c1)[C@@H](N)C1(CCN(c3cnc(Sc4ccnc(N)c4F)c(N)n3)CC1)C2 [Compound 275] | 2 nM | 2 nM | 0.5 nM |  |
| CC#Cc1ccc2c(c1)[C@@H](N)C1(CCN(c3nc(N)c(Sc4ccnc(N)c4Cl)c(=O)n3C)CC1)C2 [Compound 289] | 2 nM | 4 nM | 2 nM |  |
| CCNC(=O)C#Cc1ccc2c(c1)[C@@H](N)C1(CCN(c3cnc(Sc4ccnc(N)n4)cn3)CC1)C2 [Compound 260] | 2 nM | 5 nM | 1 nM |  |
| C#Cc1ccc2c(c1)[C@@H](N)C1(CCN(c3cc(=O)n(-c4ccc(C#N)c(Cl)c4Cl)c(C)n3)CC1)C2 [Compound 184] | 96 nM |  | 3 nM | 67 nM |
| COCCNC(=O)C#Cc1ccc2c(c1)[C@@H](N)C1(CCN(c3cnc(Sc4ccnc(N)c4Cl)cn3)CC1)C2 [Compound 297] | 0.3 nM | 1 nM | 0.3 nM |  |
| C#Cc1cc(F)c2c(c1)[C@@H](N)C1(CCN(c3cc(=O)n(-c4cccc(Cl)c4Cl)c(C)n3)CC1)C2 [Compound 135] | 95 nM | 56 nM | 5 nM |  |
| C#Cc1ccc2c(c1)[C@@H](N)C1(CCN(c3cc(=O)n(-c4cccc(Cl)c4Cl)c(N)n3)CC1)C2 [Compound 245] | 17 nM | 12 nM | < 0.5 nM |  |
| CNC(=O)C#Cc1ccc2c(c1)[C@@H](N)C1(CCN(c3cnc(Sc4ccnc(N)c4F)c(N)n3)CC1)C2 [Compound 264] | 0.4 nM | 2 nM | 0.6 nM |  |
| CCNC(=O)C#Cc1ccc2c(c1)[C@@H](N)C1(CCN(c3cnc(Sc4ccnc(N)c4Cl)cn3)CC1)O2 [Compound 293] | 0.9 nM | 5 nM | 1 nM |  |
| CCNC(=O)C#Cc1ccc2c(c1)[C@@H](N)C1(CCN(c3cnc(Sc4cc(N)nc(Cl)c4Cl)cn3)CC1)C2 [Compound 256] | 6 nM | 12 nM | 4 nM |  |
| CNC(=O)C#Cc1ccc2c(c1)[C@@H](N)C1(CCN(c3ncc(Sc4ccnc(N)c4Cl)n4nccc34)CC1)C2 [Compound 177] | 4 nM | 7 nM | 2 nM |  |
| CC#Cc1ccc2c(c1)[C@@H](N)C1(CCN(c3cc(=O)n(-c4ccc(F)c(F)c4Cl)c(C)n3)CC1)C2 (atropisomer, axis not shown) [Compound 217] | 62 nM |  | 1 nM | 49 nM |
| CNC(=O)C#Cc1ccc2c(c1)[C@@H](N)C1(CCN(c3cnc(Sc4ccnc(N)c4F)cn3)CC1)C2 [Compound 265] | 0.4 nM | 0.9 nM | 0.4 nM |  |
| Nc1nc(N2CCC3(CC2)Cc2ccc(C#CC(=O)NC4CC4)cc2[C@H]3N)c(Cl)nc1Sc1ccnc(N)c1Cl [Compound 230] | 7.4 nM | 31 nM | 10 nM |  |

Results, then the molecule that gave them:

| IC50 (Miapaca2 3D spheroids) | IC50 ([1]; Homo sapiens, MIA PaCa-2, 2 h) | IC50 [2] | IC50 ([1]; 2 hours) | SMILES |
| --- | --- | --- | --- | --- |
| 0.6 nM | 2 nM | 0.4 nM |  | NC(=O)C#Cc1ccc2c(c1)[C@@H](N)C1(CCN(c3cnc(Sc4ccnc(N)c4Cl)cn3)CC1)C2 [Compound 270] |
| 15 nM | 6 nM | 4 nM |  | CNC(=O)C#Cc1ccc2c(c1)[C@@H](N)C1(CCN(c3nc(N)c(Sc4ccnc(N)c4Cl)nc3Cl)CC1)C2 [Compound 222, (S)-3-(1-amino-1′-(6-amino-5-((2-amino-3-chloropyridin-4-yl)thio)-3-chloropyrazin-2-yl)-1,3-dihydrospiro[indene-2,4′-piperidin]-6-yl)-N-methylpropiolamide] |
| 1 nM | 4 nM | 1.3 nM |  | CCNC(=O)C#Cc1ccc2c(c1)[C@@H](N)C1(CCN(c3cnc(Sc4cccnc4Cl)c(N)n3)CC1)C2 [Compound 238] |
| 16 nM | 7 nM | 2 nM |  | Cc1nc(Sc2ccnc(N)c2Cl)c(N)nc1N1CCC2(CC1)Cc1ccc(C#CC(=O)N(C)C)cc1[C@H]2N [Compound 203] |
| 47 nM | 14 nM | 5 nM |  | CNC(=O)C#Cc1ccc2c(c1)[C@@H](N)C1(CCN(c3nc(N)c(Sc4ccnc(OC)c4Cl)nc3C)CC1)C2 [Compound 188] |
| 39 nM | 38 nM | 6 nM |  | COCC#Cc1cc(F)c2c(c1)[C@@H](N)C1(CCN(c3ncc(Sc4ccnc(N)n4)c4nccn34)CC1)C2 [Compound 171] |
| 18 nM |  | 1 nM | 23 nM | CNC(=O)C#Cc1ccc2c(c1)[C@@H](N)C1(CCN(c3cc(=O)n(-c4cccc(OC)c4Cl)c(C)n3)CC1)C2 (atropisomer, axis not shown) [Compound 182] |
| 3 nM | 6 nM | 1 nM |  | Cc1nc(Sc2ccnc(N)c2F)c(N)nc1N1CCC2(CC1)Cc1ccc(C#CC(N)=O)cc1[C@H]2N [Compound 274] |
| 71 nM | 39 nM | 6 nM |  | C#Cc1ccc2c(c1)[C@@H](N)C1(CCN(c3nc(C)n(-c4cccc(Cl)c4Cl)c(=O)c3F)CC1)C2 [Compound 165] |
| 6 nM | 7 nM | 3 nM |  | CCNC(=O)C#Cc1ccc2c(c1)[C@@H](N)C1(CCN(c3nc(N)c(Sc4ccnc(N)c4Cl)nc3C)CC1)C2 [Compound 219] |
| 1 nM | 7 nM | 0.3 nM |  | CNC(=O)C#Cc1ccc2c(c1)[C@@H](N)C1(CCN(c3cnc(Sc4ccnc(N)n4)cn3)CC1)C2 [Compound 262] |
